Reference: ChEMBL document CHEMBL2177099, “Discovery of 1-[4-(N-benzylamino)phenyl]-3-phenylurea derivatives as non-peptidic selective SUMO-sentrin specific protease (SENP)1 inhibitors” (Bioorg Med Chem Lett, 2012)
Activity calls are given as the source filed them. No cut-off for these calls is given here.

Experiments:
Bos taurus [1] = organism: Bos taurus; test: Inhibition of bovine pancreatic trypsin using FITC-Casein substrate at 10 to 100 uM by fluorescence assay
Bos taurus [2] = organism: Bos taurus; test: Inhibition of bovine pancreatic chymotrypsin using FITC-Casein substrate at 10 to 100 uM by fluorescence assay
[3] = biological target: T1, Thermolysin (Bacillus thermoproteolyticus) (UniProt P00800); test: Inhibition of Bacillus thermoproteolyticus rokko thermolysin using FITC-Casein substrate at 10 to 100 uM by fluorescence assay
T1 sequence (whole entry): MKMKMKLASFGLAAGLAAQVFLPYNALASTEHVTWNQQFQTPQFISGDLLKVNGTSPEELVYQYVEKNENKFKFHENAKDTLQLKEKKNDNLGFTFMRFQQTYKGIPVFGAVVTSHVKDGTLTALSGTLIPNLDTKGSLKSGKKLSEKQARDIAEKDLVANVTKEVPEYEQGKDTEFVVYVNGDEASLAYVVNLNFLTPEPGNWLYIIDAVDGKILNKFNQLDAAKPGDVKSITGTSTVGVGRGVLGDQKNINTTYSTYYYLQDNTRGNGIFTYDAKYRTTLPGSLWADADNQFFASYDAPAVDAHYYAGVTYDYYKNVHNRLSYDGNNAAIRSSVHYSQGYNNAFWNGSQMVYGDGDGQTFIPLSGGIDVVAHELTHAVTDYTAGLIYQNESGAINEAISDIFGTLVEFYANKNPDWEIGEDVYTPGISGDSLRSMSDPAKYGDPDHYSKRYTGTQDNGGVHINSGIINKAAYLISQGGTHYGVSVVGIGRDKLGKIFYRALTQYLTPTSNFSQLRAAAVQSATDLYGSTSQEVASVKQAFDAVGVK

HeLa [4] = test: Inhibition of hypoxia-induced HIF1alpha accumulation in human HeLa cells after 6 hrs by Western blot analysis; format: functional, cell-based
[5] = biological target: T2, Sentrin-specific protease 2 (Homo sapiens) (UniProt Q9HC62); test: Inhibition of recombinant human SENP2 catalytic domain assessed as release of fluorescent AMC from SUMO-1-AMC preincubated at 10 to 100 uM for 10 mins before substrate addition by fluorescence assay
T2 sequence (whole entry): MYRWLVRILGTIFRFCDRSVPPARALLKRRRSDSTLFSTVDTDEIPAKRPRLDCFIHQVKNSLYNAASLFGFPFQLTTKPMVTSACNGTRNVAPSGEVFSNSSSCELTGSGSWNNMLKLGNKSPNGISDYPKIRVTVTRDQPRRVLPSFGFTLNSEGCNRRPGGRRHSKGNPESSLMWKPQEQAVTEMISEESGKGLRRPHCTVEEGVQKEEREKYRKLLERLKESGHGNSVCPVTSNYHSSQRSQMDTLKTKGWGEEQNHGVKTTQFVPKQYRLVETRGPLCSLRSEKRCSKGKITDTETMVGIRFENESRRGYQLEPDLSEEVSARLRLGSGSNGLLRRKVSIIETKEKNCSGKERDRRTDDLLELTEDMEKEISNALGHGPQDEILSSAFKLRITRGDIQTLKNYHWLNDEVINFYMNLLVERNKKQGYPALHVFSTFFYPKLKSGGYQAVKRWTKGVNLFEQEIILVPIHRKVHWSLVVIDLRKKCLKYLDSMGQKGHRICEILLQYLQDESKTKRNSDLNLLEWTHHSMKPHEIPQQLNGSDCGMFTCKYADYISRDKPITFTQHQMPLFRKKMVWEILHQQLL

HeLa [6] = conditions: Homo sapiens, 3 uM
Description: Inhibition of hypoxia-induced HIF1alpha accumulation in human HeLa cells at 3 uM after 6 hrs by Western blot analysis

| inhibition (Bos taurus [1]) | inhibition (Bos taurus [2]) | inhibition [3] | inhibition [5] | Structure (SMILES) | inhibition (HeLa [4]) | inhibition (HeLa [6]) |
| --- | --- | --- | --- | --- | --- | --- |
| inactive | inactive | inactive | inactive | CCOC(=O)c1cccc(CNc2ccc(N(C)C(=O)Nc3ccccc3)cc2)c1 | Dose-dependent effect |  |
|  |  |  |  | COC(=O)c1cccc(CNc2ccc(N(C)C(=O)Nc3ccccc3)cc2)c1 | Dose-dependent effect | Active |
